Test results: US20250361217A1, “FATTY ACID COMPOUNDS” (University of Pittsburgh - Of the Commonwealth System of …, priority 2022, published 2025)

Assays:
[1] = test system: HFD model in C57BL/6J mice; assay: Glucose tolerance test (GTT) in HFD NAFLD mouse model; format: in vivo
Source text: (§1) Male C57BL/6J mice were purchased from Jackson Laboratory (Bar Harbor, ME, USA). Mice were acclimated for a week before being randomized to receive either a low-fat diet (LFD) or a high-fat diet (HFD) purchased from Research Diets (New Brunswick, NJ, USA). Obesity was induced by the HFD (D12492, with 60% of the adjusted calories derived from fat) for 16 weeks beginning at age of 8 weeks. Age-matched controls were maintained on a LFD (D12450J, matching the sucrose level of D12492). While maintaining the diet, mice under HFD were divided into 4 groups (n=8 per group) and were treated every 2 days by oral gavage for 7 weeks with 100 μl of 11D3 (50 mg/kg), 11U3 (50 mg/kg), or 11U3-2M (50 mg/kg) formulated in a solution of 2:1 of polyethylene glycol (Fisher Scientific, PEG400 #p167-1) and saline, containing 1.5% of octanoic acid (TCI, #00027). Control groups received 100 μl of PEG400/saline/octanoic acid as the vehicle (Veh). LFD mice were divided into 2 groups (n=8 per group) and treated with veh or 11D3 (50 mg/kg) to detect any effect of natural FuFA in LFD. Mice were grouped to start at the same weight mean before starting the treatment. During and before gavage treatment, mice were fed ad libitum and given free access to water. Food intake, water consumption, and mouse weight were monitored every week. At 20 weeks (4 weeks of treatment), a glucose tolerance test (GTT) was performed on all cohorts. After 2 weeks of recovery (22 weeks), a whole-body composition was performed using EchoMRI™-100H. At the end of the 23 weeks study, mice were euthanized with isoflurane followed by laparotomy. The blood was collected, and mice were perfused using 0.9% NaCl. Organs were harvested and snap-frozen in liquid nitrogen gas and stored at −80° C. for further analysis. The Cellerusher (Cell Crusher, Schull, Ireland) tissue pulverizer was used to reduce frozen tissues to a fine, easily recoverable powder using dry ice. For immunohistochemistry, the same liver lobe for every mouse was fixed in Formalin 10% (Fisher Chemical, #SF98-4) for 48h, followed by 75% ethanol baths before paraffin embedding.
GTT was performed on mice fasted for 5h. Mice were injected intraperitoneally with filter-sterilized 1.5 g/kg glucose in 0.9% NaCl. Blood glucose levels were measured using a hand-held glucometer (Accu-Chek Aviva, Roche Diagnostics, Indianapolis, IN, USA) at 0, 20, 40, 60, 90, and 120 min.

[2] = test system: HFD model in C57BL/6J mice; assay: Plasma insulin, metabolic hormones, AST/ALT, TNF-α in HFD mice; format: in vivo
Source text: as §1
After collection, red blood cells and plasma were separated by centrifugation for 5 min at 7500 g at 4° C., aliquoted, and stored at −80° C. Insulin levels were measured by ELISA (Invitrogen, #EMINS) using 50 μl of plasma as per the manufacturer's instructions. Aspartate aminotransferase (AST) and alanine aminotransferase (ALT) levels were both measured using 5 μl of plasma with ELISA (Abcam, #ab263882 and #ab282882, respectively). Metabolic hormones were determined using Luminex xMAP technology (Milliplex mouse metabolic hormone expanded panel #MMHE-44K, Millipore, Burlington, MA, USA). The multiplex metabolic hormones plate was measured as per the manufacturer's instructions.

CCCc1ccc(CCCCCCCCCC(C)(C)C(=O)O)o1 [11U3-2M, 2,2-Dimethyl-11-(5-propylfuran-2-yl)undecanoic acid]
blood glucose clearance measured by GTT compared to veh ([1]; 50 mg/kg gavage every 2 days, after 4 weeks of treatment): significantly improved
decrease in glucose area under the curve from 0 to 120 min vs veh ([1]; 50 mg/kg, 4 weeks): 24%
fasting blood glucose ([1]; 50 mg/kg, 4 weeks): trend in decreased glucose
less glucose in GTT vs veh ([1]; 20 min time point, 50 mg/kg, 4 weeks): 18%
less glucose in GTT vs veh ([1]; 40 min time point, 50 mg/kg, 4 weeks): 26%
less glucose in GTT vs veh ([1]; 60 min time point, 50 mg/kg, 4 weeks): 22%
lower insulin plasma level compared to veh (ELISA) ([2]; 50 mg/kg): 68%
plasma level of AST ([2]; 50 mg/kg): significant reduction
plasma level of TNF-α ([2]; 50 mg/kg): significant reduction
lower plasma C-peptide 2 compared to veh ([2]; 50 mg/kg, milliplex): 43%
lower plasma gastric inhibitory polypeptide (GIP) compared to veh ([2]; 50 mg/kg, milliplex): 36%
liver enzyme ALT ([2]; FIG. 3D legend): improving liver enzymes (AST and ALT)
